Source: patent US9932339B2, “Helquats with heteroaromatic substituents, preparation thereof, and use thereof as G-quadruplex stabilizers” (USTAV ORGANICKE CHEMIE A BIOCHEMIE AV CR, V.V.I., priority 2014, dated 2018)

Key:
[1] = system: G-quadruplex in promoter region of the c-myc gene (NHE III1 segment); assay: Dual luciferase analysis with plasmid pGL4.10-myc (luc2) in HGC-27 cells; format: cell-based, human; settings: Homo sapiens; for inhibition at 50 µM: HGC-27, text summary of tab. 5 (50 μmol·l^−1), read-out: inhibition of expression of firefly luciferase as compared to control; for activity at 50 µM: helquat 50 μmol · l^−1, HGC-27, firefly normalized to Renilla, 24 hours after transfection, read-out: luciferase expression relative to control (control = 100%)
Method in brief: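 HGC-27 cells were co-transfected 1:1 with pGL4.10-myc (luc2), whose firefly luciferase is driven by an 860 bp c-myc regulatory region containing the G-quadruplex-forming NHE III1 segment, and pRL-TK Renilla control, using X-tremeGENE HP DNA in OptiMEM. Compounds were added two hours post-transfection; luminescence read 24 hours after transfection was Renilla-normalized and expressed relative to control.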

[2] = system: c-myc protein; assay: Immunodetection of protein c-myc in HGC-27 cell lysates (Western blot); format: cell-based, human; settings: 50 μmol · l^−1, 24 hour incubation, normalized to β-actin
Description: Determination of changes in c-myc protein expression (transcription factor) in cell lysates prepared from tumor cell line HGC-27 after treatment with test helquats (Tab. 7) was carried out by immunodetection after separation of proteins according to their size by gel electrophoresis (SDS-PAGE) and blotting.
To determine the influence helquats on expression of c-myc protein, the cells were cultured under standard conditions and in the exponential growth phase were seeded into flasks at a density of 25,000 cells/cm^2. The next day selected helquats were added at a concentration of 50 μmol·l^−1. After 24 hour incubation, the cell pellets were obtained and, after addition of RIPA buffer with protease inhibitors (PrIC) and phosphatases (PhIC) (for composition see Tab. 8) cell lysates were prepared. 150 μl of RIPA buffer was used for 10^7 cells. Protein concentrations in the lysates were measured by BCA method. Separation of proteins in the lysates was carried out on a 12% denaturing polyacrylamide gel. The separated proteins were transferred to PVDF membrane by Western blotting.
Incubation with primary mouse monoclonal antibody against the protein c-myc (dilution 1:1000 in “SignalBoost” reagent) was carried out overnight at 4° C., and then with the primary mouse anti-β-actin (1:5000 dilution in 5% milk in TBS-T buffer) at room temperature for 2 hours. Subsequently, the secondary horse monoclonal antibody conjugated to horseradish peroxidase (diluted 1:2000 in 5% milk in TBS-T buffer) binding to mouse IgG antibody was applied. C-myc proteins and β-actin bound to the membrane were visualized using detection kit (SuperSignal® West Femto Maximum Sensitivity Substrate, Cat. No. 34095, Thermo Fisher Scientific, Inc., USA) in the chemiluminescence detection system ImageQuant LAS 4000 Mini (Cat. No. 28-9558-13, GE Healthcare Life Sciences, USA). The amount of protein was quantified by densitometry in Quantity One software. The amount of c-myc in the samples was normalized to β-actin, and subsequently related to a control sample.

SMILES	inhibition at 50 µM [1] [%]	activity at 50 µM [1] [%]	c-myc protein expression relative to control (control = 100%) [2] [%]
Cc1c(C)c2c(c3c1CC[n+]1ccc(/C=C/c4ccsc4)cc1-3)-c1cccc(/C=C/c3ccsc3)[n+]1CC2 (racemic) [MJB-C5-9, (rac)-8,9-dimethyl-2,13-bis((E)-2-(thiophen-3-yl)vinyl)-6,7,10,11-tetrahydrodipyrido[2,1-a:1′,2′-k][2,9]phenanthroline-5,12-diium trifluoromethanesulfonate]	> 20	75	30
CCOC(=O)c1cc(/C=C/c2cc[n+]3c(c2)-c2c(c(C)c(C)c4c2-c2c5ccccc5cc[n+]2CC4)CC3)c[nH]1.O=S(=O)([O-])C(F)(F)F.O=S(=O)([O-])C(F)(F)F [MJA-C8-28, (E)-13-(2-(5-(ethoxycarbonyl)-1H-pyrrol-3-yl)vinyl)-6,7-dimethyl-4,5,8,9-tetrahydroisoquinolino[1,2-a]pyrido[1,2-k][2,9]phenanthroline-3,10-diium trifluoromethanesulfonate]	> 20	72	23
C(=C\c1cccc2c1oc1ccccc12)/c1cc[n+]2c(c1)-c1c(ccc3c1-c1cccc[n+]1CC3)CC2.O=S(=O)([O-])C(F)(F)F.O=S(=O)([O-])C(F)(F)F [LSA-C13-8, (E)-2-(2-(dibenzo[b,d]furan-4-yl)vinyl)-6,7,10,11-tetrahydrodipyrido[2,1-a:1′,2′-k][2,9]phenanthroline-5,12-diium trifluoromethanesulfonate]	> 40	58	15
Cc1nc[nH]c1/C=C/c1cc[n+]2c(c1)-c1c(c(C)c(C)c3c1-c1cccc(/C=C/c4[nH]cnc4C)[n+]1CC3)CC2.O=S(=O)([O-])C(F)(F)F.O=S(=O)([O-])C(F)(F)F [MJB-C5-11, 8,9-dimethyl-2,13-bis((E)-2-(4-methyl-1H-imidazol-5-yl)vinyl)-6,7,10,11-tetrahydrodipyrido[2,1-a:1′,2′-k][2,9]phenanthroline-5,12-diium trifluoromethanesulfonate]			23
Cc1c(C)c2c(c3c1CC[n+]1ccc(/C=C/c4ccc(-n5c6ccccc6c6ccccc65)cc4)cc1-3)-c1c3ccccc3cc[n+]1CC2.O=S(=O)([O-])C(F)(F)F.O=S(=O)([O-])C(F)(F)F [MJA-C19-4, (E)-13-(4-(9H-carbazol-9-yl)styryl)-6,7-dimethyl-4,5,8,9-tetrahydroisoquinolino[1,2-a]pyrido[1,2-k][2,9]phenanthroline-3,10-diium trifluoromethanesulfonate]			81
Cc1c(C)c2c(c3c1CC[n+]1ccc4ccccc4c1-3)-c1cccc(/C=C/c3cccc4c3oc3ccccc34)[n+]1CC2.O=S(=O)([O-])C(F)(F)F.O=S(=O)([O-])C(F)(F)F [VDJA-C13-8, (E)-11-(2-(dibenzo[b,d]furan-4-yl)vinyl)-6,7-dimethyl-4,5,8,9-tetrahydroisoquinolino[1,2-a]pyrido[1,2-k][2,9]phenanthroline-3,10-diium trifluoromethanesulfonate]	> 20	76	77
C(=C\c1cc(/C=C/c2ccsc2)[n+]2c(c1)-c1c(ccc3c1-c1cc(/C=C/c4ccsc4)cc(/C=C/c4ccsc4)[n+]1CCC3)CCC2)/c1ccsc1 (racemic) [PRC-C5-9, (rac)-2,4,13,15-tetrakis((E)-2-(thiophen-3-yl)vinyl)-6,7,8,11,12,13-hexahydro-dipyrido[1,2-a;1′,2′-a′]benzo[2,1-c:3,4-c′]bisazepindiium trifluoromethanesulfonate]			34
Cc1nc[nH]c1/C=C/c1cc[n+]2c(c1)-c1c(ccc3c1-c1cc(/C=C/c4[nH]cnc4C)cc[n+]1CC3)CC2.O=S(=O)([O-])C(F)(F)F.O=S(=O)([O-])C(F)(F)F [PDA-C5-11, 2,15-bis((E)-2-(4-methyl-1H-imidazol-5-yl)vinyl)-6,7,10,11-tetrahydrodipyrido[2,1-a:1′,2′-k][2,9]phenanthroline-5,12-diium trifluoromethanesulfonate]			80
Cc1c(C)c2c(c3c1CC[n+]1ccc(/C=C/c4cccc5c4oc4ccccc45)cc1-3)-c1cc(/C=C/c3cccc4c3oc3ccccc34)cc[n+]1CC2.O=S(=O)([O-])C(F)(F)F.O=S(=O)([O-])C(F)(F)F [PDB-C13-8, 2,15-bis((E)-2-(dibenzo [b,d]furan-4-yl)vinyl)-8,9-dimethyl-6,7,10,11-tetrahydrodipyrido[2,1-a:1′,2′-k][2,9]phenanthroline-5,12-diium trifluoromethanesulfonate]			83
